Reference: ChEMBL document CHEMBL1649144, “Breakpoints for susceptibility testing should not divide wild-type distributions of important target species” (2009)
≈ marks a conversion by molar mass, not a printed value.

Tests used:
Format in all cases: functional
Nakaseomyces glabratus [1] = experiment: Antimicrobial activity against Candida glabrata SSI-M68190-2007 by EUCAST method
Candida parapsilosis = experiment: Antimicrobial activity against Candida parapsilosis ATCC 21019 by EUCAST method; conditions: Lodderomyces parapsilosis
Nakaseomyces glabratus [2] = experiment: Antimicrobial activity against Candida glabrata by EUCAST method

Question: For `OC(Cn1cncn1)(Cn1cncn1)c1ccc(F)cc1F` [FLUCONAZOLE], which MIC (Nakaseomyces glabratus [1]) is on record?
Answer: The MIC was 0.5 µg/mL (≈ 1.63 µM).

Question: And the MIC (Candida parapsilosis)?
Answer: The MIC was 0.5 µg/mL (≈ 1.63 µM).

Question: What about the MIC (Nakaseomyces glabratus [2]) of the same molecule?
Answer: The MIC was 8 µg/mL (≈ 26.1 µM).
